For data set [1], the system named is W2 P. falciparum parasites. Nature of the data set: Plasmodium falciparum growth inhibition assay. To be noted: 12f vs 2f.
Data set [2] in a line: Mouse liver microsome stability. To be noted: for T1/2 (min) no NADPH / half-life: mouse liver microsomes; for microsomal CLint / half-life: mouse, microsomes.
Data set [3] deals with P. berghei-infected female Swiss Webster mice. To be noted: oral; for mouse survival extended compared to vehicle-treated control animals: one or two daily doses of 4 mg/kg; for 50% curative dose (PD50): free bases, 4 daily doses, estimated from dose–efficacy study (Table 3).
A short description of data set [4]: physchem. Conditions: pH 7.4.
The test system of data set [5] is similar models (P. berghei-infected mice). To be noted: single dose 20 mg/kg; cited from earlier work.
Setting [6] is: T1/2 (min), half-life when incubated with mouse liver microsomes.

Consider twelve compounds from publication PMC5535261 (Journal of Medicinal Chemistry, 2017).

Each structure is given as a SMILES string. Converted amounts (≈) assume the structure as drawn.

Take `O=C(C[C@@H]1CCC[C@]2(C1)OOC1(O2)C2CC3CC(C2)CC1C3)N1CCOCC1` (stereo partly drawn) [12f]: the “fold more potent than cis-4″ regioisomer 2f (EC50, W2)” value in data set [1] is 3 fold.
Regarding `O=C(C[C@@H]1CCC[C@]2(C1)OOC1(O2)C2CC3CC(C2)CC1C3)N1CCNCC1` (stereo partly drawn) [12g], the “T1/2 (min) no NADPH” value in data set [2] (no NADPH) is reported as “stable”. Further, in data set [2], the microsomal CLint is 27.2 µL/min/mg. In addition, the half-life in data set [2] (setting [6]) worked out at 0.425 h.
As for `NC1CCN(C(=O)C[C@@H]2CCC[C@]3(C2)OOC2(O3)C3CC4CC(C3)CC2C4)CC1` (stereo partly drawn) [12i], in data set [2] (no NADPH), the “T1/2 (min) no NADPH” value was “stable”. The same compound showed an intrinsic clearance (microsomal CLint) in data set [2] of 8.2 µL/min/mg. Also, the half-life in data set [2] (setting [6]) amounted to 1.41 h. In addition, the “mouse survival extended compared to vehicle-treated control animals” value in data set [3] is 3 to 6 days.
Regarding `CC(C)(CN)CNC(=O)C[C@@H]1CCC[C@]2(C1)OOC1(O2)C2CC3CC(C2)CC1C3` (stereo partly drawn) [12d], the “T1/2 (min) no NADPH” value in data set [2] (no NADPH) was “stable”. In addition, in data set [2], the intrinsic clearance (microsomal CLint) is 10.8 µL/min/mg. In data set [2] (setting [6]), this compound had a half-life of 1.07 h.
Take `CC(C)(N)CNC(=O)C[C@H]1CC[C@]2(CC1)OO[C@]1(O2)C2CC3CC(C2)CC1C3` [2a, arterolane, reference compound]: the “T1/2 (min) no NADPH” value in data set [2] (no NADPH) was “stable”. Also, the “50% curative dose (PD50)” value in data set [3] is given as roughly 4 mg kg^–1 day^–1. The solubility (kinetic) in data set [4] amounted to 433 µM (≈ 170 µg/mL).
On to `NC1CCN(C(=O)C[C@H]2CC[C@]3(CC2)OO[C@]2(O3)C3CC4CC(C3)CC2C4)CC1` [2i, reference compound], for which the “T1/2 (min) no NADPH” value in data set [2] (no NADPH) was “stable”.
Take `CC(C)(N)CNC(=O)C[C@@H]1CCC[C@]2(C1)OOC1(O2)C2CC3CC(C2)CC1C3` (stereo partly drawn) [12a]: the “T1/2 (min) no NADPH” value in data set [2] (no NADPH) is given as “stable”. This compound also registered a microsomal CLint in data set [2] of 4.1 µL/min/mg. Besides, the half-life in data set [2] (setting [6]) turned out to be 2.82 h. Besides, the “50% curative dose (PD50)” value in data set [3] was roughly 6 mg kg^–1 day^–1. This compound also returned a kinetic solubility in data set [4] of 429 µM (≈ 168 µg/mL).
In turn, `NCCNC(=O)C[C@@H]1CCC[C@]2(C1)OOC1(O2)C2CC3CC(C2)CC1C3` (stereo partly drawn) [12c] came in with an intrinsic metabolic clearance (microsomal CLint) in data set [2] of 8.2 µL/min/mg. Moreover, the half-life in data set [2] (T1/2 (min) no NADPH, no NADPH) was determined as 2.27 h; in data set [2] (setting [6]), 1.41 h. Further, the “mouse survival extended compared to vehicle-treated control animals” value in data set [3] was 3 to 6 days.
For `NC(=O)CNC(=O)C[C@H]1CC[C@]2(CC1)OO[C@]1(O2)C2CC3CC(C2)CC1C3` [2b, reference compound], in data set [2] (no NADPH), the “T1/2 (min) no NADPH” value is listed as “stable”.
As for `NC(=O)CNC(=O)C[C@@H]1CCC[C@]2(C1)OOC1(O2)C2CC3CC(C2)CC1C3` (stereo partly drawn) [12b], the “T1/2 (min) no NADPH” value in data set [2] (no NADPH) is on record as “stable”. Besides, in data set [2], the microsomal CLint turned out to be 18.6 µL/min/mg. The same compound had a half-life in data set [2] (setting [6]) of 0.622 h.
For `c1cc([C@H]2CC[C@]3(CC2)OO[C@]2(O3)C3CC4CC(C3)CC2C4)ccc1OCCN1CCOCC1` [compound 3, artefenomel], in data set [5], the single-dose efficacy result was “single-dose cures”.
Consider `CC(C)(CN)CNC(=O)C[C@H]1CC[C@]2(CC1)OO[C@]1(O2)C2CC3CC(C2)CC1C3` [2d, reference compound], for which the “T1/2 (min) no NADPH” value in data set [2] (no NADPH) is given as “stable”.
